{"source": "ChEMBL document CHEMBL4613233", "about": "“Discovery of 2-((4-resorcinolyl)-5-aryl-1,2,3-triazol-1-yl)acetates as potent Hsp90 inhibitors with selectivity over TRAP1” (Bioorg Med Chem Lett, 2020)", "key": {"[1]": {"target": "Heat shock protein HSP 90-alpha (Homo sapiens, UniProt P07900)", "description": "Inhibition of recombinant HSP90alpha (unknown origin) incubated for 24 hrs in presence of 1-FITC3 probe by fluorescence polarization assay"}, "[2]": {"target": "T1, Heat shock protein 75 kDa, mitochondrial (Homo sapiens, UniProt Q12931)", "T1 sequence (Q12931 whole entry)": "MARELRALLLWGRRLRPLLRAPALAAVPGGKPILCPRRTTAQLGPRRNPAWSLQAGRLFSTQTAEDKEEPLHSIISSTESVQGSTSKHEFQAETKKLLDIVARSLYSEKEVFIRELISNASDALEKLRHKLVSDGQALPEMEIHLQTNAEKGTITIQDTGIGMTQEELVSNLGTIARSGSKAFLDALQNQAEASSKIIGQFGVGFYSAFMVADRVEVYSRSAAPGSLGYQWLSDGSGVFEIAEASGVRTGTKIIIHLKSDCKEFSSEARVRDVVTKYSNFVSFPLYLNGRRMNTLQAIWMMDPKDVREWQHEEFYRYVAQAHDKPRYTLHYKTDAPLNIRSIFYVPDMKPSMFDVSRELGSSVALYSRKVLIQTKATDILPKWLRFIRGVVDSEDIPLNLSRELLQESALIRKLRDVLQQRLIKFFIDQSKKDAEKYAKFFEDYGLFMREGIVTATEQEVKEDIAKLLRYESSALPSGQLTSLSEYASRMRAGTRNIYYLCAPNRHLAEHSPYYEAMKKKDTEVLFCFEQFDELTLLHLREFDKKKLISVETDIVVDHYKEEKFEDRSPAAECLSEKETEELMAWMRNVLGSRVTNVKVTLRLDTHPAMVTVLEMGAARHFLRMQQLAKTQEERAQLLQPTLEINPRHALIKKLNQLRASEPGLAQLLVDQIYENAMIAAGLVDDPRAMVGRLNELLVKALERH", "experiment": "Inhibition of TRAP1 (unknown origin)"}, "Endoplasmin": {"target": "Endoplasmin (Homo sapiens, UniProt P14625)", "sequence (P14625 whole entry)": "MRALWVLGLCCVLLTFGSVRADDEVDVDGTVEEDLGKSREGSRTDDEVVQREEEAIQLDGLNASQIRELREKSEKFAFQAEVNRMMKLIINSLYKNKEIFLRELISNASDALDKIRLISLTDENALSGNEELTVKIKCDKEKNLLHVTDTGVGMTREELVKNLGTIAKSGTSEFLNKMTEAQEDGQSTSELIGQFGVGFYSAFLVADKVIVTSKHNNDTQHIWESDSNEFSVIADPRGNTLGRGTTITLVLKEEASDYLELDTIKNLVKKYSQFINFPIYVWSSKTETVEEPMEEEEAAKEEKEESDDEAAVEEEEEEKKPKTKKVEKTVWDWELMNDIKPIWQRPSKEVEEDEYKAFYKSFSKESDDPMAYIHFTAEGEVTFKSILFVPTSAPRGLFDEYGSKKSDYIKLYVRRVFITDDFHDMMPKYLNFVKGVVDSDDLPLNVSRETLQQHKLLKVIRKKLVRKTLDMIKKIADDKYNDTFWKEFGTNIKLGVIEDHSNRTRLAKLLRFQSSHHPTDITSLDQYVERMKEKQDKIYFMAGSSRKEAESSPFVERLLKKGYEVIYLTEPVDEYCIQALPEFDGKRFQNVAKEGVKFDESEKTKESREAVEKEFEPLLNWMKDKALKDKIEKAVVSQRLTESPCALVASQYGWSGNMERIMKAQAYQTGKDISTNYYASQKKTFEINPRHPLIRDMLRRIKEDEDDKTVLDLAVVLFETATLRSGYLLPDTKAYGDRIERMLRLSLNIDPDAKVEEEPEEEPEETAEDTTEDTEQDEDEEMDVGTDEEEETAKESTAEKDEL", "experiment": "Inhibition of GRP94 (unknown origin)"}, "HeLa": {"tested_on": "HeLa", "experiment": "Antiproliferative activity against human HeLa cells by MTT assay", "type": "functional, cell-based"}, "PC-3": {"tested_on": "PC-3", "experiment": "Antiproliferative activity against human PC3 cells by MTT assay", "type": "functional, cell-based"}}}
{"smiles": "CC(C)c1cc(-c2nn[nH]c2-c2ccc(S(C)(=O)=O)cc2)c(O)cc1O", "values": [{"measurement": "IC50", "setting": "[1]", "result": 166, "unit": "nM"}]}
{"smiles": "CC(C)c1cc(-c2nn[nH]c2-c2ccc3c(c2)OCCO3)c(O)cc1O", "values": [{"measurement": "IC50", "setting": "[1]", "result": 169, "unit": "nM"}]}
{"smiles": "CC(C)c1cc(-c2nnn(CC(N)=O)c2-c2ccc(S(C)(=O)=O)cc2)c(O)cc1O", "values": [{"measurement": "IC50", "setting": "[1]", "result": 136, "unit": "nM"}]}
{"smiles": "CC(C)c1cc(-c2nnn(CC(=O)O)c2-c2ccc(S(C)(=O)=O)cc2)c(O)cc1O", "values": [{"measurement": "IC50", "setting": "[1]", "result": 187, "unit": "nM"}]}
{"smiles": "CCOC(=O)Cn1nnc(-c2cc(C(C)C)c(O)cc2O)c1-c1cccc(S(C)(=O)=O)c1", "values": [{"measurement": "IC50", "setting": "[2]", "result": 35100, "unit": "nM"}, {"measurement": "IC50", "setting": "Endoplasmin", "result": 96.2, "unit": "nM"}, {"measurement": "IC50", "setting": "[1]", "result": 53.1, "unit": "nM"}]}
{"smiles": "COC(=O)Cn1nnc(-c2cc(C(C)C)c(O)cc2O)c1-c1ccc2c(c1)OCCO2", "values": [{"measurement": "IC50", "setting": "[2]", "result": 11900, "unit": "nM"}, {"measurement": "IC50", "setting": "Endoplasmin", "result": 78, "unit": "nM"}, {"measurement": "IC50", "setting": "HeLa", "result": 500, "unit": "nM"}, {"measurement": "IC50", "setting": "PC-3", "result": 234, "unit": "nM"}, {"measurement": "IC50", "setting": "[1]", "result": 47.8, "unit": "nM"}]}
{"smiles": "CCOC(=O)Cn1nnc(-c2cc(CC)c(O)cc2O)c1-c1ccc(CN2CCOCC2)cc1", "values": [{"measurement": "IC50", "setting": "[1]", "result": 178, "unit": "nM"}]}
{"smiles": "CCc1cc(-c2nnn(CC(=O)OC)c2-c2ccc3c(c2)OCCO3)c(O)cc1O", "values": [{"measurement": "IC50", "setting": "[1]", "result": 173, "unit": "nM"}]}
{"smiles": "COC(=O)Cn1nnc(-c2cc(C(C)C)c(O)cc2O)c1-c1ccc(CN2CCOCC2)cc1", "values": [{"measurement": "IC50", "setting": "[2]", "result": 24500, "unit": "nM"}, {"measurement": "IC50", "setting": "Endoplasmin", "result": 197, "unit": "nM"}, {"measurement": "IC50", "setting": "[1]", "result": 91, "unit": "nM"}]}
{"smiles": "COC(=O)Cn1nnc(-c2cc(C(C)C)c(O)cc2O)c1-c1cccc(NS(C)(=O)=O)c1", "values": [{"measurement": "IC50", "setting": "[2]", "result": 24500, "unit": "nM"}, {"measurement": "IC50", "setting": "Endoplasmin", "result": 190, "unit": "nM"}, {"measurement": "IC50", "setting": "[1]", "result": 78.3, "unit": "nM"}]}
{"smiles": "CCc1cc(-c2nnn(CC(=O)OC)c2-c2cccc(NS(C)(=O)=O)c2)c(O)cc1O", "values": [{"measurement": "IC50", "setting": "[1]", "result": 184, "unit": "nM"}]}
{"smiles": "COC(=O)Cn1nnc(-c2cc(C(C)C)c(O)cc2O)c1-c1ccc(S(C)(=O)=O)cc1", "values": [{"measurement": "IC50", "setting": "[2]", "result": 16000, "unit": "nM"}, {"measurement": "IC50", "setting": "Endoplasmin", "result": 89, "unit": "nM"}, {"measurement": "IC50", "setting": "HeLa", "result": "> 2000", "unit": "nM"}, {"measurement": "IC50", "setting": "PC-3", "result": 460, "unit": "nM"}, {"measurement": "IC50", "setting": "[1]", "result": 43.3, "unit": "nM"}]}
{"smiles": "CCc1cc(-c2nnn(CC(=O)OC)c2-c2cccc(S(C)(=O)=O)c2)c(O)cc1O", "values": [{"measurement": "IC50", "setting": "[1]", "result": 154, "unit": "nM"}]}
{"smiles": "CCOC(=O)Cn1nnc(-c2cc(C(C)C)c(O)cc2O)c1-c1ccc2c(c1)OCCO2", "values": [{"measurement": "IC50", "setting": "[2]", "result": 25400, "unit": "nM"}, {"measurement": "IC50", "setting": "Endoplasmin", "result": 192, "unit": "nM"}, {"measurement": "IC50", "setting": "[1]", "result": 60.9, "unit": "nM"}]}
{"smiles": "CC(C)c1cc(-c2nnn(Cc3ccccc3)c2-c2ccc(S(C)(=O)=O)cc2)c(O)cc1O", "values": [{"measurement": "IC50", "setting": "[2]", "result": 8480, "unit": "nM"}, {"measurement": "IC50", "setting": "Endoplasmin", "result": 78, "unit": "nM"}, {"measurement": "IC50", "setting": "HeLa", "result": 206, "unit": "nM"}, {"measurement": "IC50", "setting": "PC-3", "result": 286, "unit": "nM"}, {"measurement": "IC50", "setting": "[1]", "result": 45.7, "unit": "nM"}]}
{"smiles": "CC(C)c1cc(-c2nnn(CC(=O)O)c2-c2cccc(S(C)(=O)=O)c2)c(O)cc1O", "values": [{"measurement": "IC50", "setting": "[1]", "result": 173, "unit": "nM"}]}
{"smiles": "CC(C)c1cc(-c2nnn(CC(N)=O)c2-c2ccc3c(c2)OCCO3)c(O)cc1O", "values": [{"measurement": "IC50", "setting": "[1]", "result": 134, "unit": "nM"}]}
{"smiles": "CC(C)c1cc(-c2nnn(CC(=O)O)c2-c2cccc(NS(C)(=O)=O)c2)c(O)cc1O", "values": [{"measurement": "IC50", "setting": "[1]", "result": 767, "unit": "nM"}]}
{"smiles": "CCc1cc(-c2nnn(CC(N)=O)c2-c2ccc(S(C)(=O)=O)cc2)c(O)cc1O", "values": [{"measurement": "IC50", "setting": "[1]", "result": 470, "unit": "nM"}]}
{"smiles": "CC(C)c1cc(-c2nn[nH]c2-c2ccccc2)c(O)cc1O", "values": [{"measurement": "IC50", "setting": "[1]", "result": 296, "unit": "nM"}]}
{"smiles": "COC(=O)Cn1nnc(-c2cc(C(C)C)c(O)cc2O)c1-c1ccc(O)c(O)c1", "values": [{"measurement": "IC50", "setting": "[1]", "result": 153, "unit": "nM"}]}
{"smiles": "CCOC(=O)Cn1nnc(-c2cc(CC)c(O)cc2O)c1-c1ccc(S(C)(=O)=O)cc1", "values": [{"measurement": "IC50", "setting": "[1]", "result": 304, "unit": "nM"}]}
{"smiles": "COC(=O)Cn1nnc(-c2cc(C(C)C)c(O)cc2O)c1-c1cccc(S(C)(=O)=O)c1", "values": [{"measurement": "IC50", "setting": "[2]", "result": 17400, "unit": "nM"}, {"measurement": "IC50", "setting": "Endoplasmin", "result": 54.1, "unit": "nM"}, {"measurement": "IC50", "setting": "HeLa", "result": "> 2000", "unit": "nM"}, {"measurement": "IC50", "setting": "PC-3", "result": 569, "unit": "nM"}, {"measurement": "IC50", "setting": "[1]", "result": 43.1, "unit": "nM"}]}
{"smiles": "CCOC(=O)Cn1nnc(-c2cc(CC)c(O)cc2O)c1-c1cccc(S(C)(=O)=O)c1", "values": [{"measurement": "IC50", "setting": "[1]", "result": 161, "unit": "nM"}]}
{"smiles": "COC(=O)Cn1nnc(-c2cc(C(C)C)c(O)cc2O)c1-c1ccc(CN2CCCCC2)cc1", "values": [{"measurement": "IC50", "setting": "[2]", "result": 6980, "unit": "nM"}, {"measurement": "IC50", "setting": "Endoplasmin", "result": 49.4, "unit": "nM"}, {"measurement": "IC50", "setting": "[1]", "result": 57, "unit": "nM"}]}
{"smiles": "COC(=O)Cn1nnc(-c2cc(C(C)C)c(O)cc2O)c1-c1ccc(OCCN(C)C)cc1", "values": [{"measurement": "IC50", "setting": "[2]", "result": 14100, "unit": "nM"}, {"measurement": "IC50", "setting": "Endoplasmin", "result": 175, "unit": "nM"}, {"measurement": "IC50", "setting": "[1]", "result": 71.2, "unit": "nM"}]}
{"smiles": "CCOC(=O)Cn1nnc(-c2cc(C(C)C)c(O)cc2O)c1-c1ccc(S(C)(=O)=O)cc1", "values": [{"measurement": "IC50", "setting": "[2]", "result": 16000, "unit": "nM"}, {"measurement": "IC50", "setting": "Endoplasmin", "result": 100, "unit": "nM"}, {"measurement": "IC50", "setting": "HeLa", "result": 402, "unit": "nM"}, {"measurement": "IC50", "setting": "PC-3", "result": 324, "unit": "nM"}, {"measurement": "IC50", "setting": "[1]", "result": 41.8, "unit": "nM"}]}
{"smiles": "CCc1cc(-c2nnn(CC(=O)OC)c2-c2ccc(S(C)(=O)=O)cc2)c(O)cc1O", "values": [{"measurement": "IC50", "setting": "[1]", "result": 214, "unit": "nM"}]}
{"smiles": "CC(C)c1cc(-c2nnn(CC(=O)O)c2-c2ccc3c(c2)OCCO3)c(O)cc1O", "values": [{"measurement": "IC50", "setting": "[1]", "result": 176, "unit": "nM"}]}
{"smiles": "CCOC(=O)Cn1nnc(-c2cc(C(C)C)c(O)cc2O)c1-c1cccc(NS(C)(=O)=O)c1", "values": [{"measurement": "IC50", "setting": "[2]", "result": 33200, "unit": "nM"}, {"measurement": "IC50", "setting": "Endoplasmin", "result": 209, "unit": "nM"}, {"measurement": "IC50", "setting": "[1]", "result": 77, "unit": "nM"}]}
{"smiles": "CC(C)c1cc(-c2n[nH]c(=O)n2-c2ccc3c(ccn3C)c2)c(O)cc1O", "note": "[GANETESPIB]", "values": [{"measurement": "IC50", "setting": "Endoplasmin", "result": 37.7, "unit": "nM"}, {"measurement": "IC50", "setting": "HeLa", "result": 11.7, "unit": "nM"}, {"measurement": "IC50", "setting": "PC-3", "result": 9.3, "unit": "nM"}]}
{"smiles": "CC(C)NCCCn1c(Sc2cc3c(cc2I)OCO3)nc2c(N)ncnc21", "note": "[PU-H71]", "values": [{"measurement": "IC50", "setting": "HeLa", "result": 226, "unit": "nM"}, {"measurement": "IC50", "setting": "PC-3", "result": 363, "unit": "nM"}]}
